Data from ChEMBL document CHEMBL1629456, “ApoA-I mimetic peptides promote pre-β HDL formation in vivo causing remodeling of HDL and triglyceride accumulation at higher dose” (Bioorg Med Chem, 2010).
Where a SMILES comes first, the peptide text is derived from it. [ ]: non-standard residue; d: D form. Gly(oct-7-en-1-yl) = C=CCCCCCC[C@H](N)C(=O)O; Ala(5-hexenyl) = C=CCCCCC[C@H](N)C(=O)O; dNle(6-vinyl) = C=CCCCC[C@@H](N)C(=O)O

Biological target: Phospholipid-transporting ATPase ABCA1 (Mus musculus, UniProt P41233)
Assay: Induction of ABCA1-mediated [3H]cholesterol efflux in mouse RAW 264.7 macrophages after 24 hrs

Sequence of Phospholipid-transporting ATPase ABCA1 (P41233 whole entry): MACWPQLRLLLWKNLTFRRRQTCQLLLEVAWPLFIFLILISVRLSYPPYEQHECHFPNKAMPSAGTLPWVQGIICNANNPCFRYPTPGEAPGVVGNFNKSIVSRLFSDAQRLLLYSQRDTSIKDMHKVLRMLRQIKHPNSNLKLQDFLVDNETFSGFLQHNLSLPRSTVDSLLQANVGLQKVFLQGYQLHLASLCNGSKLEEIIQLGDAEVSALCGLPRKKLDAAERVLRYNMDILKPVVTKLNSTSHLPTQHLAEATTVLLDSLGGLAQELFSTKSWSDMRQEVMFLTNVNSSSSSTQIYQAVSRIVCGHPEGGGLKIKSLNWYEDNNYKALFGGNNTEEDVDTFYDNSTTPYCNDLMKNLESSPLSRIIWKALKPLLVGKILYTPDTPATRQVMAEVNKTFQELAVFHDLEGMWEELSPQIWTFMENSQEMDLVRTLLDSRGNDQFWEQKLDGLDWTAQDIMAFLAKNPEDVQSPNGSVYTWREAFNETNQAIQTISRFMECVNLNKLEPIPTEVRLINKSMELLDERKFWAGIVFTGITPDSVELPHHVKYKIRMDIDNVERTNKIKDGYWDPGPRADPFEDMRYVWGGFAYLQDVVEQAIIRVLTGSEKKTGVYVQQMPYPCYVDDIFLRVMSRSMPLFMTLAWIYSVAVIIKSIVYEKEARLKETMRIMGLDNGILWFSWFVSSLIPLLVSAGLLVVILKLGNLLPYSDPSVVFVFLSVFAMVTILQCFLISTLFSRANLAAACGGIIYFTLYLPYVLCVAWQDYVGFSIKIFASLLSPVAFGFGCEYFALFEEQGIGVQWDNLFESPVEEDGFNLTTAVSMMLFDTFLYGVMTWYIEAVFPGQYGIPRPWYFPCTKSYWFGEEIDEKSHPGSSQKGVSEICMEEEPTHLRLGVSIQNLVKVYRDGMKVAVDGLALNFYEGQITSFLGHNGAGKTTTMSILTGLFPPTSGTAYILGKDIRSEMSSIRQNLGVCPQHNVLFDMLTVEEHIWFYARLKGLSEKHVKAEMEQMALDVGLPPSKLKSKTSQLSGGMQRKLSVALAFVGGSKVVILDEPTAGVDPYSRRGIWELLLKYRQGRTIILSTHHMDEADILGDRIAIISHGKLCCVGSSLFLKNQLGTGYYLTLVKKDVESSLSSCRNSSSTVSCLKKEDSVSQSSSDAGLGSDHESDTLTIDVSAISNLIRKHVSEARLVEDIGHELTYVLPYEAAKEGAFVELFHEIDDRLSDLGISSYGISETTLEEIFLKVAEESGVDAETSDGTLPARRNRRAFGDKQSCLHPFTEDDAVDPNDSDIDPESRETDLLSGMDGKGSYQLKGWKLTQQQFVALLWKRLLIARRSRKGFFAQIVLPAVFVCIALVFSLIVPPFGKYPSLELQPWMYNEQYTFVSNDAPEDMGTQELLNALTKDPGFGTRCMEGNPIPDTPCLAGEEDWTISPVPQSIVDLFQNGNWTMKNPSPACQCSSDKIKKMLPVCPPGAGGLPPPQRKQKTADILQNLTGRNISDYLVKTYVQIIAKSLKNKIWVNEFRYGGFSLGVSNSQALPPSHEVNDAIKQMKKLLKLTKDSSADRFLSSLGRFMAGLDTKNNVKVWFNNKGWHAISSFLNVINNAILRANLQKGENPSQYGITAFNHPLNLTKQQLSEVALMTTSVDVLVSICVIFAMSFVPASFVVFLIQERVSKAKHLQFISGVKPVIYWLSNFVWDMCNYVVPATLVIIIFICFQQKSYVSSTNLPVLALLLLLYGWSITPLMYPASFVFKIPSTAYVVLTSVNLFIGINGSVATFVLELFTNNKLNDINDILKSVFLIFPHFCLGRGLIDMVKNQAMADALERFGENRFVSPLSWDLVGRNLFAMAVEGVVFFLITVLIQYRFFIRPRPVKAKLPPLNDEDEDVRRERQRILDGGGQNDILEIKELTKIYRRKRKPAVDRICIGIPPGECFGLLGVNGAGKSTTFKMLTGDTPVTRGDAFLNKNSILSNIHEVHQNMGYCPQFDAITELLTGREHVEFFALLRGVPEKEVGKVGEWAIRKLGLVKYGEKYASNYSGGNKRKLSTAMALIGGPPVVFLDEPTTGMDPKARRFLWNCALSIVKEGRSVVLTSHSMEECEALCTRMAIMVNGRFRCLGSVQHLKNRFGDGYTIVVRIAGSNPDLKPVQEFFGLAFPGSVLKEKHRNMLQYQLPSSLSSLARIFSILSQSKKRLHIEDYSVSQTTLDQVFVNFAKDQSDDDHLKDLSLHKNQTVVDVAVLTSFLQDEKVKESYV

Row | EC50 | SMILES
1 | > 100 µM | C=CCCCCC[C@@H](NC(=O)[C@H](CCC(=O)O)NC(=O)[C@H](CC(=O)O)NC(=O)[C@H](CC(C)C)NC(=O)[C@@H](NC(=O)[C@@H]1CCCN1C(C)=O)C(C)C)C(=O)N[C@@H](CCCNC(=N)N)C(=O)N[C@@H](CCC(=O)O)C(=O)N[C@@H](CCCCN)C(=O)N[C@@H](CC(C)C)C(=O)N[C@@H](CC(N)=O)C(=O)N[C@@H](CCC(=O)O)C(=O)N[C@@H](CCC(=O)O)C(=O)N[C@@H](CC(C)C)C(=O)N[C@@H](CCC(=O)O)C(=O)N[C@@H](C)C(=O)N[C@@H](CC(C)C)C(=O)N[C@@H](CCCCN)C(=O)N[C@@H](CCC(N)=O)C(=O)N[C@@H](CCCCN)C(=O)N[C@@H](CC(C)C)C(=O)N[C@@H](CCCCN)C(N)=O
2 | > 100 µM | C=CCCCCC[C@@H](NC(=O)[C@H](C)NC(=O)[C@H](CCC(=O)O)NC(=O)[C@H](CC(C)C)NC(=O)[C@H](CCC(=O)O)NC(=O)[C@H](CCC(=O)O)NC(=O)[C@H](CC(N)=O)NC(=O)[C@H](CC(C)C)NC(=O)[C@H](CCCCN)NC(=O)[C@H](CCC(=O)O)NC(=O)[C@H](CCCN=C(N)N)NC(=O)[C@H](Cc1ccccc1)NC(=O)[C@H](CCC(=O)O)NC(=O)[C@H](CC(=O)O)NC(=O)[C@H](CC(C)C)NC(=O)[C@@H](NC(=O)[C@@H]1CCCN1C(C)=O)C(C)C)C(=O)N[C@@H](CCCCN)C(=O)N[C@@H](CCC(N)=O)C(=O)N[C@@H](CCCCN)C(=O)N[C@@H](CC(C)C)C(=O)N[C@@H](CCCCN)C(N)=O
3 | > 100 µM | C=CCCCC[C@H](NC(=O)[C@@H]1CCCN1C(C)=O)C(=O)N[C@@H](CC(C)C)C(=O)N[C@@H](CC(=O)O)C(=O)N[C@@H](CCC(=O)O)C(=O)N[C@@H](Cc1ccccc1)C(=O)N[C@@H](CCCN=C(N)N)C(=O)N[C@@H](CCC(=O)O)C(=O)N[C@@H](CCCCN)C(=O)N[C@@H](CC(C)C)C(=O)N[C@@H](CC(N)=O)C(=O)N[C@@H](CCC(=O)O)C(=O)N[C@@H](CCC(=O)O)C(=O)N[C@@H](CC(C)C)C(=O)N[C@@H](CCC(=O)O)C(=O)N[C@@H](C)C(=O)N[C@@H](CC(C)C)C(=O)N[C@@H](CCCCN)C(=O)N[C@@H](CCC(N)=O)C(=O)N[C@@H](CCCCN)C(=O)N[C@@H](CC(C)C)C(=O)N[C@@H](CCCCN)C(N)=O
4 | > 100 µM | C=CCCCCC[C@H](NC(=O)[C@H](CCCCN)NC(=O)[C@H](CCC(=O)O)NC(=O)[C@H](CCCNC(=N)N)NC(=O)[C@H](Cc1ccccc1)NC(=O)[C@H](CCC(=O)O)NC(=O)[C@H](CC(=O)O)NC(=O)[C@H](CC(C)C)NC(=O)[C@@H](NC(=O)[C@@H]1CCCN1C(C)=O)C(C)C)C(=O)N[C@@H](CC(N)=O)C(=O)N[C@@H](CCC(=O)O)C(=O)N[C@@H](CCC(=O)O)C(=O)N[C@@H](CC(C)C)C(=O)N[C@@H](CCC(=O)O)C(=O)N[C@@H](C)C(=O)N[C@@H](CC(C)C)C(=O)N[C@@H](CCCCN)C(=O)N[C@@H](CCC(N)=O)C(=O)N[C@@H](CCCCN)C(=O)N[C@@H](CC(C)C)C(=O)N[C@@H](CCCCN)C(N)=O
5 | > 100 µM | C=CCCCC[C@H](NC(=O)[C@H](CCC(=O)O)NC(=O)[C@H](CCC(=O)O)NC(=O)[C@H](CC(N)=O)NC(=O)[C@H](CC(C)C)NC(=O)[C@H](CCCCN)NC(=O)[C@H](CCC(=O)O)NC(=O)[C@H](CCCNC(=N)N)NC(=O)[C@H](Cc1ccccc1)NC(=O)[C@H](CCC(=O)O)NC(=O)[C@H](CC(=O)O)NC(=O)[C@H](CC(C)C)NC(=O)[C@@H](NC(=O)[C@@H]1CCCN1C(C)=O)C(C)C)C(=O)N[C@@H](CCC(=O)O)C(=O)N[C@@H](C)C(=O)N[C@@H](CC(C)C)C(=O)N[C@@H](CCCCN)C(=O)N[C@@H](CCC(N)=O)C(=O)N[C@@H](CCCCN)C(=O)N[C@@H](CC(C)C)C(=O)N[C@@H](CCCCN)C(N)=O
6 | > 100 µM | C=CCCCCC[C@H](NC(=O)[C@H](CCC(=O)O)NC(=O)[C@H](CCC(=O)O)NC(=O)[C@H](CC(N)=O)NC(=O)[C@H](CC(C)C)NC(=O)[C@H](CCCCN)NC(=O)[C@H](CCC(=O)O)NC(=O)[C@H](CCCNC(=N)N)NC(=O)[C@H](Cc1ccccc1)NC(=O)[C@H](CCC(=O)O)NC(=O)[C@H](CC(=O)O)NC(=O)[C@H](CC(C)C)NC(=O)[C@@H](NC(=O)[C@@H]1CCCN1C(C)=O)C(C)C)C(=O)N[C@@H](CCC(=O)O)C(=O)N[C@@H](C)C(=O)N[C@@H](CC(C)C)C(=O)N[C@@H](CCCCN)C(=O)N[C@@H](CCC(N)=O)C(=O)N[C@@H](CCCCN)C(=O)N[C@@H](CC(C)C)C(=O)N[C@@H](CCCCN)C(N)=O
7 | > 100 µM | C=CCCCCC[C@@H](NC(=O)[C@H](CCC(N)=O)NC(=O)[C@H](CCCCN)NC(=O)[C@H](CC(C)C)NC(=O)[C@H](C)NC(=O)[C@H](CCC(=O)O)NC(=O)[C@H](CC(C)C)NC(=O)[C@H](CCC(=O)O)NC(=O)[C@H](CCC(=O)O)NC(=O)[C@H](CC(N)=O)NC(=O)[C@H](CC(C)C)NC(=O)[C@H](CCCCN)NC(=O)[C@H](CCC(=O)O)NC(=O)[C@H](CCCN=C(N)N)NC(=O)[C@H](Cc1ccccc1)NC(=O)[C@H](CCC(=O)O)NC(=O)[C@H](CC(=O)O)NC(=O)[C@H](CC(C)C)NC(=O)[C@@H](NC(=O)[C@@H]1CCCN1C(C)=O)C(C)C)C(=O)N[C@@H](CC(C)C)C(=O)N[C@@H](CCCCN)C(N)=O
8 | 0.4 µM | C=CCCCCCC[C@H](NC(=O)[C@H](CCC(=O)O)NC(=O)[C@H](CC(N)=O)NC(=O)[C@H](CC(C)C)NC(=O)[C@H](CCCCN)NC(=O)[C@H](CCC(=O)O)NC(=O)[C@H](CCCN=C(N)N)NC(=O)[C@H](CCCCCCC=C)NC(=O)[C@H](CCC(=O)O)NC(=O)[C@H](CC(=O)O)NC(=O)[C@H](CC(C)C)NC(=O)[C@@H](NC(=O)[C@@H]1CCCN1C(C)=O)C(C)C)C(=O)N[C@@H](CC(C)C)C(=O)N[C@@H](CCC(=O)O)C(=O)N[C@@H](C)C(=O)N[C@@H](CC(C)C)C(=O)N[C@@H](CCCCN)C(=O)N[C@@H](CCC(N)=O)C(=O)N[C@@H](CCCCN)C(=O)N[C@@H](CC(C)C)C(=O)N[C@@H](CCCCN)C(N)=O (Ac-PVLDE[Gly(oct-7-en-1-yl)]REKLNE[Gly(oct-7-en-1-yl)]LEALKQKLK-NH2)
9 | > 100 µM | C=CCCCC[C@@H](NC(=O)[C@@H](NC(=O)[C@@H]1CCCN1C(C)=O)C(C)C)C(=O)N[C@@H](CC(=O)O)C(=O)N[C@@H](CCC(=O)O)C(=O)N[C@@H](Cc1ccccc1)C(=O)N[C@@H](CCCNC(=N)N)C(=O)N[C@@H](CCC(=O)O)C(=O)N[C@@H](CCCCN)C(=O)N[C@@H](CC(C)C)C(=O)N[C@@H](CC(N)=O)C(=O)N[C@@H](CCC(=O)O)C(=O)N[C@@H](CCC(=O)O)C(=O)N[C@@H](CC(C)C)C(=O)N[C@@H](CCC(=O)O)C(=O)N[C@@H](C)C(=O)N[C@@H](CC(C)C)C(=O)N[C@@H](CCCCN)C(=O)N[C@@H](CCC(N)=O)C(=O)N[C@@H](CCCCN)C(=O)N[C@@H](CC(C)C)C(=O)N[C@@H](CCCCN)C(N)=O
10 | 0.4 µM | C=CCCCCC[C@H](NC(=O)[C@H](CCC(=O)O)NC(=O)[C@H](CC(N)=O)NC(=O)[C@H](CC(C)C)NC(=O)[C@H](CCCCN)NC(=O)[C@H](CCC(=O)O)NC(=O)[C@H](CCCN=C(N)N)NC(=O)[C@H](Cc1ccccc1)NC(=O)[C@H](CCC(=O)O)NC(=O)[C@H](CC(=O)O)NC(=O)[C@H](CC(C)C)NC(=O)[C@H](CCCCCC=C)NC(=O)[C@@H]1CCCN1C(C)=O)C(=O)N[C@@H](CC(C)C)C(=O)N[C@@H](CCC(=O)O)C(=O)N[C@@H](C)C(=O)N[C@@H](CC(C)C)C(=O)N[C@@H](CCCCN)C(=O)N[C@@H](CCC(N)=O)C(=O)N[C@@H](CCCCN)C(=O)N[C@@H](CC(C)C)C(=O)N[C@@H](CCCCN)C(N)=O (Ac-P[Ala(5-hexenyl)]LDEFREKLNE[Ala(5-hexenyl)]LEALKQKLK-NH2)
11 | 31 µM | C=CCCCC[C@@H](NC(=O)[C@H](CCC(=O)O)NC(=O)[C@H](CC(N)=O)NC(=O)[C@H](CC(C)C)NC(=O)[C@H](CCCCN)NC(=O)[C@H](CCC(=O)O)NC(=O)[C@H](CCCN=C(N)N)NC(=O)[C@H](Cc1ccccc1)NC(=O)[C@H](CCC(=O)O)NC(=O)[C@H](CC(=O)O)NC(=O)[C@H](CC(C)C)NC(=O)[C@@H](NC(=O)[C@@H]1CCCN1C(C)=O)C(C)C)C(=O)N[C@@H](CC(C)C)C(=O)N[C@@H](CCC(=O)O)C(=O)N[C@@H](C)C(=O)N[C@@H](CC(C)C)C(=O)N[C@@H](CCCCN)C(=O)N[C@@H](CCC(N)=O)C(=O)N[C@@H](CCCCN)C(=O)N[C@@H](CC(C)C)C(=O)N[C@@H](CCCCN)C(N)=O (Ac-PVLDEFREKLNE[dNle(6-vinyl)]LEALKQKLK-NH2)
12 | 5 µM | C=CCCCCC[C@H](NC(=O)[C@H](CCC(N)=O)NC(=O)[C@H](CCCCN)NC(=O)[C@H](CC(C)C)NC(=O)[C@H](C)NC(=O)[C@H](CCC(=O)O)NC(=O)[C@H](CC(C)C)NC(=O)[C@H](CCCCCC=C)NC(=O)[C@H](CCC(=O)O)NC(=O)[C@H](CC(N)=O)NC(=O)[C@H](CC(C)C)NC(=O)[C@H](CCCCN)NC(=O)[C@H](CCC(=O)O)NC(=O)[C@H](CCCN=C(N)N)NC(=O)[C@H](Cc1ccccc1)NC(=O)[C@H](CCC(=O)O)NC(=O)[C@H](CC(=O)O)NC(=O)[C@H](CC(C)C)NC(=O)[C@H](CCCCCC=C)NC(=O)[C@@H]1CCCN1C(C)=O)C(=O)N[C@@H](CC(C)C)C(=O)N[C@@H](CCCCN)C(N)=O (Ac-P[Ala(5-hexenyl)]LDEFREKLNE[Ala(5-hexenyl)]LEALKQ[Ala(5-hexenyl)]LK-NH2)
13 | > 100 µM | C=CCCCC[C@@H](NC(=O)[C@H](CCC(=O)O)NC(=O)[C@H](CC(=O)O)NC(=O)[C@H](CC(C)C)NC(=O)[C@@H](NC(=O)[C@@H]1CCCN1C(C)=O)C(C)C)C(=O)N[C@@H](CCCN=C(N)N)C(=O)N[C@@H](CCC(=O)O)C(=O)N[C@@H](CCCCN)C(=O)N[C@@H](CC(C)C)C(=O)N[C@@H](CC(N)=O)C(=O)N[C@@H](CCC(=O)O)C(=O)N[C@@H](CCC(=O)O)C(=O)N[C@@H](CC(C)C)C(=O)N[C@@H](CCC(=O)O)C(=O)N[C@@H](C)C(=O)N[C@@H](CC(C)C)C(=O)N[C@@H](CCCCN)C(=O)N[C@@H](CCC(N)=O)C(=O)N[C@@H](CCCCN)C(=O)N[C@@H](CC(C)C)C(=O)N[C@@H](CCCCN)C(N)=O
14 | > 100 µM | C=CCCC[C@@H](NC(=O)[C@H](CCC(=O)O)NC(=O)[C@H](CC(=O)O)NC(=O)[C@H](CC(C)C)NC(=O)[C@@H](NC(=O)[C@@H]1CCCN1C(C)=O)C(C)C)C(=O)N[C@@H](CCCNC(=N)N)C(=O)N[C@@H](CCC(=O)O)C(=O)N[C@@H](CCCCN)C(=O)N[C@@H](CC(C)C)C(=O)N[C@@H](CC(N)=O)C(=O)N[C@@H](CCC(=O)O)C(=O)N[C@@H](CCC(=O)O)C(=O)N[C@@H](CC(C)C)C(=O)N[C@@H](CCC(=O)O)C(=O)N[C@@H](C)C(=O)N[C@@H](CC(C)C)C(=O)N[C@@H](CCCCN)C(=O)N[C@@H](CCC(N)=O)C(=O)N[C@@H](CCCCN)C(=O)N[C@@H](CC(C)C)C(=O)N[C@@H](CCCCN)C(N)=O
